Assay results: patent US7858349B2, “Anti-cancer compounds” (The Regents of the University of Colorado, priority 1999, dated 2010)

Experiments:
NSCLC strain A-549 = assay: MTT assay for cell survival, NSCLC A-549 in vitro; type: cell-based, human; conditions: ED50 for killing of NSCLC strain A-549 in vitro, 4 days
SCLC strain SHP-77 = assay: MTT assay for cell survival, SCLC SHP-77 in vitro; type: cell-based, human; conditions: ED50 for killing of SCLC strain SHP-77 in vitro, 4 days, 0 = no detectable activity, read-out: SCLC SHP-77 IC50
PC3 PC cells = assay: Inhibition of PC3 tumor growth in vivo in nude mice; set-up: species or system athymic nude mice; key to PC3 In vivo % inhib.: an IC50 value of “0” represents no detectable anti-cancer activity for a drug in a given cell line; “Stim.” indicates the observation of a stimulatory activity on the growth of the cancer cell line; conditions: percent inhibition of tumor growth in nude mice; prostate cancer; i.p. 5 mg/kg/every second day or 10 mg/kg/every fourth day
Procedure, shortened: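 Groups of 5 nude mice dosed i.p. at 10 mg/kg every fourth day or 5 mg/kg every second day, beginning 8 days after s.c. implantation of PC3 (1.5 million), A549 (1 million) or SHP-77 (2 million) cells in Matrigel; saline or DMSO-matched controls. Tumor weight at necropsy and caliper-derived volume both used to calculate inhibition.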

Row | SMILES | IC50 (NSCLC strain A-549) | IC50 (SCLC strain SHP-77) | PC3 In vivo % inhib. (PC3 PC cells)
1 | CC1(C)CC(NC(=O)C(Cc2ccc(-c3ccccc3)cc2)NC(=O)C(c2ccc(Cl)cc2)c2ccc(Cl)cc2)CC(C)(C)N1 (centres unmarked) [Analog M-1274, Bcpa-Bip-Atmp] | 7.3 µM | 2.1 µM | –
2 | O=C(C=Cc1c(F)c(F)c(F)c(F)c1F)NC(Cc1ccc(I)cc1)C(=O)NC1CN2CCC1CC2 [Analog M-1286, F5c-PIF-(R)-(+)-Aqu] | 9 µM | 4.3 µM | –
3 | O=C(C=Cc1c(F)c(F)c(F)c(F)c1F)NC(Cc1ccc(-c2ccccc2)cc1)C(=O)NC1CN2CCC1CC2 [Analog M-1288, F5c-Bip-(R)-(+)-Aqu] | 7.3 µM | 4.3 µM | –
4 | O=C(C=Cc1c(F)c(F)c(F)c(F)c1F)NC(Cc1ccc(I)cc1)C(=O)N1CCCN(Cc2ccccc2)CC1 (centres unmarked) [Analog M-1294, F5c-PIF-Bhp] | 22 µM | – | 44%
5 | O=C(C=Cc1c(F)c(F)c(F)c(F)c1F)NC(Cc1ccc(I)cc1)C(=O)N1CCN(c2ccc(Cl)cc2)CC1 (centres unmarked) [Analog M-1298, F5c-PIF-Cpp] | 21 µM | – | –
6 | O=C(C=Cc1c(F)c(F)c(F)c(F)c1F)NC(Cc1ccc(I)cc1)C(=O)N1CCN(C(c2ccccc2)c2ccc(Cl)cc2)CC1 (centres unmarked) [Analog M-1300, F5c-PIF-Cbp] | 21 µM | – | –
7 | O=C(C=Cc1c(F)c(F)c(F)c(F)c1F)NC(Cc1ccc(I)cc1)C(=O)N1CCN(CCc2ccccc2)CC1 (centres unmarked) [Analog M-1304, F5c-PIF-Pep] | 17 µM | – | –
8 | O=C(C=Cc1c(F)c(F)c(F)c(F)c1F)NC(Cc1ccc(I)cc1)C(=O)N1CCN(CCCc2ccccc2)CC1 (centres unmarked) [Analog M-1308, F5c-PIF-Ppp] | 14 µM | – | –
9 | O=C(C=Cc1c(F)c(F)c(F)c(F)c1F)NC(Cc1ccc(I)cc1)C(=O)N1CCN(Cc2ccc(Cl)cc2)CC1 (centres unmarked) [Analog M-1310, F5c-PIF-4-Clbp] | 12 µM | – | Stim.
10 | O=C(C=Cc1c(F)c(F)c(F)c(F)c1F)NC(Cc1ccc(I)cc1)C(=O)NC1CCN(Cc2ccccc2)C1 (centres unmarked) [Analog M-1312, F5c-PIF-BapS] | 13 µM | – | 33%
11 | O=C(C=Cc1c(F)c(F)c(F)c(F)c1F)NC(Cc1ccc(I)cc1)C(=O)N1CCN(CC2CCCCC2)CC1 (centres unmarked) [Analog M-1314, F5c-PIF-Chmp] | 21 µM | – | –
12 | C=CCN1CCN(C(=O)C(Cc2ccc(I)cc2)NC(=O)C=Cc2c(F)c(F)c(F)c(F)c2F)CC1 (centres unmarked) [Analog M-1316, F5c-PIF-Alp] | 20 µM | – | –
13 | C=CCN(CC=C)CCN1CCN(C(=O)C(Cc2ccc(I)cc2)NC(=O)C=Cc2c(F)c(F)c(F)c(F)c2F)CC1 (centres unmarked) [Analog M-1318, F5c-PIF-Daep] | 8.4 µM | – | –
14 | N#Cc1ccc(N2CCN(C(=O)C(Cc3ccc(I)cc3)NC(=O)C=Cc3c(F)c(F)c(F)c(F)c3F)CC2)cc1 (centres unmarked) [Analog M-1320, F5c-PIF-4-Cypp] | 17 µM | – | –
15 | O=C(C=Cc1c(F)c(F)c(F)c(F)c1F)NC(Cc1ccc(I)cc1)C(=O)N1CCN(Cc2ccc(F)cc2)CC1 (centres unmarked) [Analog M-1322, F5c-PIF-Fbp] | 13 µM | – | 46%
16 | O=C(C=Cc1c(F)c(F)c(F)c(F)c1F)NC(Cc1ccc(I)cc1)C(=O)NC1CCN(Cc2ccccc2)C1 (centres unmarked) [Analog M-1326, F5c-PIF-BapR] | 10 µM | – | 0.6%
17 | CCCCCCCCN1CCN(C(=O)C(Cc2ccc(I)cc2)NC(=O)C=Cc2c(F)c(F)c(F)c(F)c2F)CC1 (centres unmarked) [Analog M-1330, F5c-PIF-Ocp] | 17 µM | – | 40%
18 | Cc1ccc(CN2CCN(C(=O)C(Cc3ccc(I)cc3)NC(=O)C=Cc3c(F)c(F)c(F)c(F)c3F)CC2)cc1 (centres unmarked) [Analog M-1332, F5c-PIF-4-Mbp] | 7.8 µM | – | 63%
19 | Cc1cc(C)c(CN2CCN(C(=O)C(Cc3ccc(I)cc3)NC(=O)C=Cc3c(F)c(F)c(F)c(F)c3F)CC2)c(C)c1 (centres unmarked) [Analog M-1334, F5c-PIF-Tmbp] | 19 µM | – | 50%
20 | O=C(C=Cc1c(F)c(F)c(F)c(F)c1F)NC(Cc1ccc(I)cc1)C(=O)N1CCN(C(c2ccc(F)cc2)c2ccc(F)cc2)CC1 (centres unmarked) [Analog M-1336, F5c-PIF-Fpmp] | 12 µM | – | 71%
